From ChEMBL document CHEMBL3392969, “SAR156497, an exquisitely selective inhibitor of aurora kinases” (J Med Chem, 2015)

Experiments:
[1] = biological target: T1, Cytochrome P450 3A4 (Homo sapiens, UniProt P08684)
Description: Inhibition of human recombinant CYP3A4 co-expressed with human P450 reductase/human b5 reductase using 7-benzyloxyquinoline substrate

[2] = in vitro; details: mouse, liver microsomes
Description: Metabolic stability mouse liver microsomes assessed as stability at 5 uM by LC/MS-MS analysis

[3] = biological target: Aurora kinase B (Homo sapiens, UniProt Q96GD4)
Description: Inhibition of poly-histidine tagged full length recombinant aurora B (unknown origin) assessed as phosphorylation of NuMA-histidine substrate by scintillation counting analysis

[4] = in vitro; details: human, liver microsomes
Description: Metabolic stability human liver microsomes assessed as stability at 5 uM by LC/MS-MS analysis

[5] = system: PBMC; assay: cells; details: Homo sapiens, 96 h
Description: Cytotoxicity against human hematological tumor PBMC assessed as viability after 96 hrs by MTS assay

[6] = Antitumor activity against human HCT116 cells xenografted in SCID mouse assessed as decrease in […] positive cells at 25 mg/kg, sc after 24 hrs infusion schedule; details: HCT-116, sc
[7] = in vivo; details: mouse, po
Description: Oral bioavailability in mouse

[8] = in vivo; details: mouse
[9] = Antitumor activity against human HCT116 cells xenografted in SCID mouse assessed as decrease in […] positive cells at 25 mg/kg/day, sc after 48 hrs infusion schedule; details: HCT-116, sc
[10] = Antitumor activity against human HCT116 cells xenografted in SCID mouse assessed as tumor growth at 25 mg/kg/day, sc after 48 hrs infusion schedule; details: route subcutaneous
[11] = system: HeLa; assay: cells; details: Homo sapiens
Description: (§1) Antiproliferative activity against human HeLa cells assessed as 14C-thymidine incorporation by Micro-Beta radioactivity counting analysis

[12] = Antitumor activity against human HCT116 cells xenografted in SCID mouse assessed as tumor growth at 25 mg/kg, sc after 24 hrs infusion schedule; details: route subcutaneous
[13] = in vivo; details: mouse; remark: listed apart in the source
Description: Volume of distribution in mouse

[14] = in vitro; details: human, Caco-2
Description: Permeability across human Caco2 cells

[15] = Plasma concentration in human HCT116 cells xenografted in SCID mouse at 50 mg/kg/day, sc infusion after 8 hrs
[16] = Antitumor activity against human HCT116 cells xenografted in SCID mouse assessed as decrease in […] positive cells at 50 mg/kg, sc after 24 hrs infusion schedule; details: HCT-116, sc
[17] = biological target: T2, Aurora kinase C (Homo sapiens, UniProt Q9UQB9)
T2 sequence (Q9UQB9 whole entry): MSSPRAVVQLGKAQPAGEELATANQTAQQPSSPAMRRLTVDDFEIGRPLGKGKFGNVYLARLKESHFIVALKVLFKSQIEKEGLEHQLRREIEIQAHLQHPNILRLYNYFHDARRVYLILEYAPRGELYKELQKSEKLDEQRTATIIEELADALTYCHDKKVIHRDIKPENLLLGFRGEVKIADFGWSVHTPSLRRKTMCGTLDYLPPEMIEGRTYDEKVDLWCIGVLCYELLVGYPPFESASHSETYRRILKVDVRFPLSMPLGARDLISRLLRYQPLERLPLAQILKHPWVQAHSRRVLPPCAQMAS
Description: Inhibition of poly-histidine tagged full length recombinant aurora C (unknown origin) assessed as phosphorylation of NuMA-histidine substrate by scintillation counting analysis

[18] = biological target: T1, Cytochrome P450 3A4; remark: listed apart in the source
Description: Inhibition of human recombinant CYP3A4 in liver microsomes by mechanism based inhibition assay

[19] = biological target: MAP kinase p38 (Homo sapiens, UniProt O15264+Q15759+Q16539+P53778)
Description: Inhibition of p-38 kinase (unknown origin)

[20] = biological target: Angiopoietin-1 receptor (Homo sapiens, UniProt Q02763)
Chain of Angiopoietin-1 receptor (Q02763 whole entry): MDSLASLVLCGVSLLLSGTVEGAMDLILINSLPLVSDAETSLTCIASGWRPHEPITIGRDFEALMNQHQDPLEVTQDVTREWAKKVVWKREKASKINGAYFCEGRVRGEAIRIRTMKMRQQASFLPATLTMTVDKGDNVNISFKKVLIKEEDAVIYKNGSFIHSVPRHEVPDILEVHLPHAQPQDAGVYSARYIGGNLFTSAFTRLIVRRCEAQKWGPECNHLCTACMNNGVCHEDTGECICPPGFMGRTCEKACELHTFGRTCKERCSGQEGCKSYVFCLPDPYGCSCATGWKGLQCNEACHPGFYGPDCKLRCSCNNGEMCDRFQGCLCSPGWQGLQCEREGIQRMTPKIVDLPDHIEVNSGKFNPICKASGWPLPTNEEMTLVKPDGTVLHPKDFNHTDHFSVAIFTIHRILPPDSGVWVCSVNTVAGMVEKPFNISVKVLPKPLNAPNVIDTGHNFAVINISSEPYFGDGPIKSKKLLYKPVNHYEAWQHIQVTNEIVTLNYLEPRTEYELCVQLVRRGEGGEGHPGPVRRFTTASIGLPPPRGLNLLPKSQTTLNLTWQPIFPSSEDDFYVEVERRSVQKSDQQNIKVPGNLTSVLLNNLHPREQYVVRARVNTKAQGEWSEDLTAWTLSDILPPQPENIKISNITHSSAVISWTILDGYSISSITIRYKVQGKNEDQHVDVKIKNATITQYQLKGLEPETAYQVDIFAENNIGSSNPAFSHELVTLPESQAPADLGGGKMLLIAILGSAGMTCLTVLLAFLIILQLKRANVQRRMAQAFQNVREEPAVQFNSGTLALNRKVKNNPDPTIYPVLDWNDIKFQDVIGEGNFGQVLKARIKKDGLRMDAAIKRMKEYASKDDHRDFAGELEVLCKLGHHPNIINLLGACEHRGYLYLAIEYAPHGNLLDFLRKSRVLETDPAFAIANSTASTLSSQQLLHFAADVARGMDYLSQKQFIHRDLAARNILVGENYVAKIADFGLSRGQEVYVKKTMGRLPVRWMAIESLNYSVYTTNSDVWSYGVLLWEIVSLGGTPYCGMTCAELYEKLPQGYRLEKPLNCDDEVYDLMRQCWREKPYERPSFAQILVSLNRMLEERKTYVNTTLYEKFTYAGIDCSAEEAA
Description: Inhibition of TIE-2 (unknown origin)

[21] = biological target: Insulin-like growth factor 1 receptor (Homo sapiens, UniProt P08069)
Chain of Insulin-like growth factor 1 receptor (P08069 31-736 limits assumed): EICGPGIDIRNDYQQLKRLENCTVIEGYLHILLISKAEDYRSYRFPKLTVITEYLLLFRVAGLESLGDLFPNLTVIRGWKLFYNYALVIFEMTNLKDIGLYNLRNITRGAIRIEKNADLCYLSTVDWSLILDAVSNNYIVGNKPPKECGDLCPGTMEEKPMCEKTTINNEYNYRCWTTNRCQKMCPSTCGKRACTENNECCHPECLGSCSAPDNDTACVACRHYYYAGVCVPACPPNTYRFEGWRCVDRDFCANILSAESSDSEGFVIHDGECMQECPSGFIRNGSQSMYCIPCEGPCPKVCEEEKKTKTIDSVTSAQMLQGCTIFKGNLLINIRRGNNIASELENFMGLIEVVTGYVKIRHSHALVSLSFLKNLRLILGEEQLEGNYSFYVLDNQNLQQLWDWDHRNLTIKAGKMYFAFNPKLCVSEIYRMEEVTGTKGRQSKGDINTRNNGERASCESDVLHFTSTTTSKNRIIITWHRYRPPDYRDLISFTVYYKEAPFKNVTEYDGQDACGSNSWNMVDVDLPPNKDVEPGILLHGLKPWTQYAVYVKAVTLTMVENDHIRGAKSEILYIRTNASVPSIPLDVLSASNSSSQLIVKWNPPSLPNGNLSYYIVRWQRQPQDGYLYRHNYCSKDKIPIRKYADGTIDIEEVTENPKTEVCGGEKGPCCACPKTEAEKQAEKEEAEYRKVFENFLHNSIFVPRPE
Chain of Insulin-like growth factor 1 receptor (P08069 741-1367 limits assumed): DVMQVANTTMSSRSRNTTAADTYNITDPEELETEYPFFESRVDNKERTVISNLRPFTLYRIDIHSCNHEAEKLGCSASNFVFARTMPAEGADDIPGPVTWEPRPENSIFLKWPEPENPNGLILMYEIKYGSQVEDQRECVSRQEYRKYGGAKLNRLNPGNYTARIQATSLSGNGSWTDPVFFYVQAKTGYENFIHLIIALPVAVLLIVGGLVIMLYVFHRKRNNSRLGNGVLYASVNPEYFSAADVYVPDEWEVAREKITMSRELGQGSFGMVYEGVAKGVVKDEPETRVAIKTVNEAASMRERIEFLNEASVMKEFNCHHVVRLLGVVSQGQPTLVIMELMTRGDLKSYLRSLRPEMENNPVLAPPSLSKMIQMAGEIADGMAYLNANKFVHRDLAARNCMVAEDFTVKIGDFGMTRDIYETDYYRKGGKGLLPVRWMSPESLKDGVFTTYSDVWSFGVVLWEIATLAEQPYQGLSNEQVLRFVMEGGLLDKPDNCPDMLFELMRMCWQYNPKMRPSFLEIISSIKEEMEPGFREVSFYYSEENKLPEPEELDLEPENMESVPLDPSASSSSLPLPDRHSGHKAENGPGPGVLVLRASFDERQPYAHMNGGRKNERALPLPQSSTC
Description: Inhibition of IGF1R (unknown origin)

[22] = biological target: Focal adhesion kinase 1 (Homo sapiens, UniProt Q05397)
Chain of Focal adhesion kinase 1 (Q05397 whole entry): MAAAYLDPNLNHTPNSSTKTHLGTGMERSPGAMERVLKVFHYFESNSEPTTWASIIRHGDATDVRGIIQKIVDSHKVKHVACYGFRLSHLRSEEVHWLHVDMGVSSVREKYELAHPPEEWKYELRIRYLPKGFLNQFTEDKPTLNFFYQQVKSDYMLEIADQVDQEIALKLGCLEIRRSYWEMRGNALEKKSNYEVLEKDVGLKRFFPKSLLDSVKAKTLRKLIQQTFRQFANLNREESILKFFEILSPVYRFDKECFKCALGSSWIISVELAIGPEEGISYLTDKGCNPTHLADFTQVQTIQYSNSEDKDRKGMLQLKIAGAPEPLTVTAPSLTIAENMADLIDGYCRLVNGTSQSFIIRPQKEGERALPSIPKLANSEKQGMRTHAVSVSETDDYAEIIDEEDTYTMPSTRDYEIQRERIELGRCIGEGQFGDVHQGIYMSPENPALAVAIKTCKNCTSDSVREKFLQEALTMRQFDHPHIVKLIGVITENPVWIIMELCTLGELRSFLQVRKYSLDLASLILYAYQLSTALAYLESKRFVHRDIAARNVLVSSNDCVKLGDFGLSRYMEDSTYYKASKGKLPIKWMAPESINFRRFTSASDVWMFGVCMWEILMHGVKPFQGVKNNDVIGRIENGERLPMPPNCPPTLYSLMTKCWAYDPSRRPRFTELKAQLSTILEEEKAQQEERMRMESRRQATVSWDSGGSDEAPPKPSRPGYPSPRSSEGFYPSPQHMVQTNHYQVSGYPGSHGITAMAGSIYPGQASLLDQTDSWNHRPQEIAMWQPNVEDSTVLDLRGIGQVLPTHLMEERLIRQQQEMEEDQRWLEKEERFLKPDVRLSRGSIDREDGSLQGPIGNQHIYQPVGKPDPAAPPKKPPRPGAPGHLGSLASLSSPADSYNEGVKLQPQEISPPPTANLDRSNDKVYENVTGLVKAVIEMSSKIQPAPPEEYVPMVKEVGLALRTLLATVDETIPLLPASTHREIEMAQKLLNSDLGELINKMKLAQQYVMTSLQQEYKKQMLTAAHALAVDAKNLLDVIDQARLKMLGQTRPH
Description: Inhibition of FAK (unknown origin)

[23] = system: HeLa
Description: as §1

Chain of Aurora kinase B (Q96GD4 whole entry): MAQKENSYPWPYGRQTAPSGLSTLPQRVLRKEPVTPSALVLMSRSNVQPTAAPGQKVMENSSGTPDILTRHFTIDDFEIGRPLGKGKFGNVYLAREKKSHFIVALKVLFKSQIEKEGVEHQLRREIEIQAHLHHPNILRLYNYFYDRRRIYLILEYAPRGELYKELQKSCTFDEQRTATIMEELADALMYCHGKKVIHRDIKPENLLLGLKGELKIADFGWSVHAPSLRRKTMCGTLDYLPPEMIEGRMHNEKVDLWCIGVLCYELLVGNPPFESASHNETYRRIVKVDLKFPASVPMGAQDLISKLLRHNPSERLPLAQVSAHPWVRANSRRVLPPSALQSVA
T1 sequence (P08684 whole entry): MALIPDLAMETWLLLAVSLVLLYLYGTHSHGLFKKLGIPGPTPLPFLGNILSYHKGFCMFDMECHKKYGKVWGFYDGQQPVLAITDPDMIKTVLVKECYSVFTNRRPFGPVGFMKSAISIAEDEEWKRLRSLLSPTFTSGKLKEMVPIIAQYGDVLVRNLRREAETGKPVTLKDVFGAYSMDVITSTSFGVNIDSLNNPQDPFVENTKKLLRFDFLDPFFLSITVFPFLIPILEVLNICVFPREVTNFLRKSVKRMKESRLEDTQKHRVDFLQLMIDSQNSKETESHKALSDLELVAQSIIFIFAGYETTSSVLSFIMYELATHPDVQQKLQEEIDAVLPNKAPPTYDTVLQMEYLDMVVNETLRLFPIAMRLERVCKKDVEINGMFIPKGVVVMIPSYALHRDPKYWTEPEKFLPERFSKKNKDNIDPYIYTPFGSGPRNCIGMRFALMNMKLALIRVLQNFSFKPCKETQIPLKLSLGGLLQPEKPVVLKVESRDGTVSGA

Structure (SMILES)	IC50 [1] [nM]	remaining at 5 µM [2] [%]	IC50 [3] [nM]	remaining at 5 µM [4] [%]	also measured
CCOC(=O)c1[nH]cc2c1NC1=C(C(=O)CN(C(=O)CN)C1)[C@H]2c1ccc(Sc2nc3ccccc3[nH]2)o1	500	30	4	65	
CCOC(=O)c1[nH]cc2c1NC1=C(C(=O)CN(C(=O)CN)C1)[C@H]2c1ccc(Sc2nc3c(F)cccc3[nH]2)o1		17	2	< 40	
CCOC(=O)c1[nH]cc2c1NC1=C(C(=O)CCC1)[C@H]2c1cccc(Oc2nc3ccccc3[nH]2)c1		32	1	53	IC50 [5]: > 10 µM; inhibition in vivo at 25 mg/kg [6]: 19%; bioavailability [7]: 64%; half-life [8]: 144 min; inhibition in vivo at 25 mg/kg/day [9]: 16%; Activity [10]: 19%; IC50 [11]: 67 nM; Activity [12]: 59%; Vd [13]: 0.14 L/kg; Papp [14]: 6 ×10⁻⁶ cm/s; concentration at 8 h [15]: 63 µM; inhibition in vivo at 50 mg/kg [16]: 47%; IC50 [17]: 3 nM; Ki [18]: 990 nM
O=C1CNCC2=C1C(c1ccccc1F)c1c[nH]nc1N2 (racemic)					IC50 [19]: > 20 µM; IC50 [11]: > 10000 nM; IC50 [20]: > 20 µM; IC50 [21]: > 20 µM; IC50 [22]: > 20 µM
CCOC(=O)c1[nH]cc2c1NC1=C(C(=O)CCC1)C2c1ccc(Sc2nc3ccccc3[nH]2)o1 (racemic)					IC50 [23]: 15 nM
CCOC(=O)c1[nH]cc2c1NC1=C(C(=O)CNC1)C2c1ccc(Sc2nc3ccccc3[nH]2)o1 (racemic)	170	60	2	66	
CCOC(=O)c1[nH]cc2c1NC1=C(C(=O)CCC1)C2c1ccc(Sc2nc3cccc(Cl)c3[nH]2)o1 (racemic)	50	85	7	68	
CCOC(=O)c1[nH]cc2c1NC1=C(C(=O)CCC1)C2c1ccc(Sc2nc3cccnc3[nH]2)o1 (racemic)		49		49	
CCOC(=O)c1[nH]cc2c1NC1=C(C(=O)CCC1)C2c1ccc(Sc2nc3c(O)cccc3[nH]2)o1 (racemic)	490	37	8	40	
CCOC(=O)c1[nH]cc2c1NC1=C(C(=O)CCC1)C2c1ccc(Sc2nc3c(N)cccc3[nH]2)o1 (racemic)		35	25	23	
CCOC(=O)c1[nH]cc2c1NC1=C(C(=O)CN(CC)C1)C2c1ccc(Sc2nc3ccccc3[nH]2)o1 (racemic)		99	6	65	
CCOC(=O)c1[nH]cc2c1NC1=C(C(=O)CCC1)C2c1ccc(Sc2nc3ccccc3[nH]2)o1 (single isomer, unassigned; (+))	190	83		69	IC50 [23]: 16 nM
CCOC(=O)c1[nH]cc2c1NC1=C(C(=O)CCC1)C2c1ccc(Sc2nc3ccccc3[nH]2)o1 (single isomer, unassigned; (-))					IC50 [23]: 7000 nM

The next lines start with results.

IC50 [1] [nM]	remaining at 5 µM [2] [%]	IC50 [3] [nM]	remaining at 5 µM [4] [%]	Structure (SMILES)	also measured
1000	36	4	66	CCOC(=O)c1[nH]cc2c1NC1=C(C(=O)CCC1)C2c1ccc(Sc2nc3c(F)cc(F)cc3[nH]2)o1 (centres undefined)	
12000	77		73	CCOC(=O)c1[nH]cc2c1NC1=C(C(=O)CCC1)C2c1ccc(Sc2nc3cc(F)ccc3[nH]2)o1 (racemic)	
4500	58	6	47	CCOC(=O)c1[nH]cc2c1NC1=C(C(=O)CCC1)C2c1ccc(Sc2nc3cccc(F)c3[nH]2)o1 (racemic)	
8400	55		58	CCOC(=O)c1[nH]cc2c1NC1=C(C(=O)CCC1)C2c1ccc(Sc2nc3cc(F)c(F)cc3[nH]2)o1 (racemic)	
34000	66		66	CCOC(=O)c1[nH]cc2c1NC1=C(C(=O)CCC1)C2c1ccc(Sc2nc3ccc(F)c(F)c3[nH]2)o1 (racemic)	
	88		90	CCOC(=O)c1[nH]cc2c1NC1=C(C(=O)CCC1)C2c1ccc(Sc2nc3cc(Cl)ccc3[nH]2)o1 (racemic)	
